Results on 7 compounds are retold here after patent US8648113B2, “Mixture and compounds from mycelia of Antrodia camphorata and use thereof” (Simpson Biotech Co., Ltd., priority 2004, dated 2014).

“And” between values parts separate entries of the source, which are not always exact repeats. Identical values can stand only once. Marks after values point to notes of the source that are not given here.

The test system of series [1] is LLC (Lewis lung carcinoma) cell line. Nature of the series: Cytotoxic assay, in vitro LLC tumor cell assay (SRB method). As to conditions: for 50% Growth Inhibition (ED50): SRB method.
For series [2], the system named is Wistar derived male or female rats. Nature of the series: Cholinergic Agonism, Central/Peripheral in rats (chewing, salivation). As to conditions: 30 mg/kg IP. The series is classed as in vivo, rat. More on the design: key to Peripheral: Salivation: +: exhibiting salivation.
In series [3] the test system is Long Evans derived rats, carrageenan-induced paw edema. The series can be described thus: Inflammation, Carrageenan in rats (hind paw edema). It is filed as in vivo, rat. As to conditions: 150 mg/kg PO; for Paw Volume Diff: R.P. minus L.P.; for Paw Volume L.P.: left (not injected) hindpaw; for Paw Volume R.P.: right (injected) hindpaw, 3 hours. The protocol: Hind paw edema, as a measure of inflammation, was recorded 3 hours after carrageenan administration using a plethysmometer with water cell (25 mm diameter). Reduction of hind paw edema by 30 percent or more (30%) indicates significant acute anti-inflammatory activity. […] Reduction of hindpaw edema by 30 percent or more (30%), shown in parenthesis, indicates significant acute anti-inflammatory activity. • 4. […] Anticancer Research 19: 1027-1032, 1999)

Series [4] concerns ICR derived male mice on high fat diet. Nature of the series: Cholesterol, Serum (Total, HDL, Total/HDL Ratio), Diet-Induced in mice. The series is classed as in vivo, mouse. The conditions noted are these: 100 mg/kg × 3 PO. The protocol: Groups of 5 ICR derived male mice weighing 22±2 g were kept on a high fat diet (g/100 g: coconut oil, 8; cholesterol, 1.0; cholic acid, 0.3; lard 2; standard chow 88.7) for 7 days to induce hypercholesterolemia. Test substance was administered orally on days 5, 6 and 7. After fasting overnight, serum was obtained from each mouse and assayed for total cholesterol (Total), high density lipoprotein (HDL) and percent change in Total/HDL. A decrease of 20 percent or more (20%) in serum Total or increase of 20 percent or more (≧20%) in serum HDL or decrease of 40% or more (≧40%) in the Total/HDL ratio relative to vehicle treated control animals is considered significant.
Vehicle, test substance or reference positive compound was administered orally (PO) on days 5, 6 and 7 after being fed a high cholesterol diet. Twenty-four hours after the third dose, the overnight-fasted test animals were sacrificed for assessing serum total cholesterol (Total) and high density lipoprotein (HDL). Decrease of 20 percent or more (20%) in serum Total or increase of 20 percent or more (20%) in serum HDL or decrease of 40% or more (40%) in the Total/HDL ratio is considered significant. • 2. Hepatic Injury, D-Galactosamine (Wrobel et al., J. Med. Chem. 41: 1084, 1998)

In series [5] the test system is Wistar derived male rats, D-galactosamine induced hepatic injury. Nature of the series: Hepatic Injury, D-Galactosamine in rats. It is filed as in vivo, rat. As to conditions: 300 mg/kg × 3 PO (Guanine, reference). On the procedure: Groups of 5 Wistar derived male rats weighing 200±20 g were used. Each animal was treated with a single injection of D-galactosamine (500 mg/kg, IP) Test substance was administered orally at 0.5 hour before and 4 hours as well as 8 hours after D-galactosamine administration and animals were sacrificed 24 hours later. […] Reduction in ALT or AST activity by 30 percent or more (30%), relative to the vehicle treated control animal indicates significant protection.
Test substance and vehicle were administered orally at 0.5 hour before and 4, 8 hours after a single dose of galactosamine (500 mg/kg, IP). The rats were sacrificed 24 hours after galactosamine injection and the ALT and AST values were determined A reduction of 30% in the ALT and AST relative to the vehicle group is considered significant. • 3. Winter et al., Inflammation, Carrageenan, Proc. Soc.

Series [6] relates to B16-F0 murine melanoma cells. The series can be described thus: Tumor, Syngeneic, Melanoma, B16-F0 Cell in C57BL/6J mice. As to conditions: B16-F0 in C57BL/6J mice, 2 mg/kg × 6 IP; for Survival Time, Days of Post-treatment: monitored to day 45.
The mark [7] stands for this setting: 30-60 min after dosing, individual animals.
Setting [8] is: positive in 2 or more of 3 = activity.
Setting [9] is: Ave. of 3 rats (Tables 12 and 13: two experiments), 150 mg/kg.
Where [10] appears, read: individual rats (Tables 12 and 13: two experiments), 150 mg/kg.

Take `COc1cccc2c1C(=O)c1c(O)c3c(c(O)c1C2=O)C[C@@](O)(C(=O)CO)C[C@@H]3O[C@H]1C[C@H](N)[C@H](O)[C@H](C)O1` [Adriamycin]: the “50% Growth Inhibition (ED50)” value in series [1] came out at 0.14 µg/mL.

Turning to `COC(=O)C1=CCCN(C)C1` [Arecoline-HBR], in series [2] (setting [7]), the “Central: Chewing” value is “+ (exhibiting more than 10 seconds of chewing behavior (mouth and/or tongue movements) measured cumulatively)” and the “Peripheral: Salivation” value is “+”. Further, in series [2] (setting [8]), the “Central: Score (positive animals of 3)” value is given as “(3/3)” and the “Peripheral: Score (positive animals of 3)” value is reported as “(3/3)”.

For `CC(=O)Oc1ccccc1C(=O)O` [Aspirin], the “Paw Volume Diff” value in series [3] (setting [9]) was 50 ×0.01 ml and 52 ×0.01 ml; in series [3] (setting [10]) it was 50 ×0.01 ml and 44 ×0.01 ml and 57 ×0.01 ml and 43 ×0.01 ml and 48 ×0.01 ml and 65 ×0.01 ml. Besides, the “Paw Volume L.P.” value in series [3] (Ave. of 3 rats (Tables 12 and 13: two experiments)) is 103 ×0.01 ml; in series [3] (setting [10]) it was 102 ×0.01 ml and 106 ×0.01 ml and 103 ×0.01 ml and 101 ×0.01 ml and 104 ×0.01 ml. Besides, the “Paw Volume R.P.” value in series [3] (setting [9]) was 154 ×0.01 ml and 155 ×0.01 ml; in series [3] (setting [10]) it was 152 ×0.01 ml and 146 ×0.01 ml and 163 ×0.01 ml and 149 ×0.01 ml and 169 ×0.01 ml.

`CC(C)(Oc1ccc(CCNC(=O)c2ccc(Cl)cc2)cc1)C(=O)O` [Benzafibrate]: in series [4] (Ave. of 5 mice), the “HDL Ave.” value was 113, the “Total (serum total cholesterol) Ave.” value stood at 228 and the “Total/HDL Ave.” value is reported as 2.02. In series [4] (individual mice, 100 mg/kg), the “HDL Indiv.” value was 91 and 120 and 133 and 123 and 97; the “Total (serum total cholesterol) Indiv.” value was 230 and 214 and 225 and 231 and 242; the “Total/HDL Indiv” value was 2.53 and 1.78 and 1.69 and 1.88 and 2.49. In addition, in series [4] (relative to vehicle), the “HDL % Dce” value is on record as “(43) %”, the “Total % Dce” value is on record as “(37) %” and the “Total/HDL % Dce” value was “(56) %”.

`CC(C)=CCOc1ccc(C2=C(CC(C)C)C(=O)NC2=O)cc1` [Compound 2, 3-Isobutyl-4-[4-(3-methyl-2-butenyloxy)phenyl]-1H-pyrrole-2,5-dione]: in series [1], the “cytotoxic activity (in words)” value was “cytotoxic” and the “50% Growth Inhibition (ED50)” value amounted to 3.6 µg/mL.

As to `Nc1nc2nc[nH]c2c(=O)[nH]1` [Guanine], in series [5] (individual rats, 300 mg/kg), the “Serum ALT” value was 508 U/L and 532 U/L and 412 U/L and 436 U/L and 636 U/L; the “Serum AST” value is 656 U/L and 912 U/L and 776 U/L and 652 U/L and 1028 U/L. In addition, in series [5] (relative to vehicle), the “Serum ALT Dec. %” value is “(34) %” and the “Serum AST Dec. %” value is recorded as “(33) %”.

Turning to `CO[C@@]12[C@H](COC(N)=O)C3=C(C(=O)C(C)=C(N)C3=O)N1C[C@@H]1N[C@@H]12` [Mitomycin], in series [6], the “Survival Time T/C (%)” value is listed as 125* %; the “Tumor Weight T/C(%), Day 1” value is reported as 100%; the “Tumor Weight T/C(%), Day 8” value was 0* %; the “Tumor Weight T/C(%), Day 11” value is listed as 16* %. Moreover, in series [6], the “Tumor Weight T/C(%), Day 15” value is recorded as 27* %; the “Tumor Weight T/C(%), Day 18” value is 32* %; the “Tumor Weight T/C(%), Day 22” value was 25* %. Besides, in series [6] (Mean ± SEM), the “Body Weight, Day 1” value stood at 21.4 ± 1.1 g; the “Body Weight, Day 8” value was determined as 22.2 ± 0.8 g; the “Body Weight, Day 11” value worked out at 22.0 ± 1.1 g; the “Body Weight, Day 15” value is reported as 23.0 ± 1.0 g. Further, in series [6] (Mean ± SEM), the “Body Weight, Day 18” value was determined as 24.0 ± 1.1 g; the “Body Weight, Day 22” value is listed as 26.3 ± 1.9 g; the “Tumor Weight, Day 1” value was determined as 0 mg; the “Tumor Weight, Day 8” value amounted to 0 ± 0 mg. Also, in series [6] (Mean ± SEM), the “Tumor Weight, Day 11” value came out at 34 ± 15 mg; the “Tumor Weight, Day 15” value came out at 119 ± 44 mg; the “Tumor Weight, Day 18” value is 391 ± 142 mg; the “Tumor Weight, Day 22” value is 587 ± 260 mg. In series [6] (Mean ± SEM), the “Survival Time, Days of Post-treatment” value was determined as 34.0 ± 4.7 days. Moreover, in series [6] (individual mice), the “Body Weight, Day 8” value stood at 20 g; the “Body Weight, Day 15” value is 20 g; the “Body Weight, Day 22” value came out at 30 g; the “Tumor Weight, Day 1” value turned out to be 0 mg. The “Tumor Weight, Day 8” value in series [6] (individual mice) came out at 0 mg. Also, in series [6] (individual mice, 2 mg/kg), the “Body Weight, Day 1” value was 25 g and 22 g (2×) and 19 g (2×); the “Body Weight, Day 8” value was 25 g and 22 g (2×) and 21 g; the “Body Weight, Day 11” value is 26 g and 22 g (2×) and 21 g and 19 g; the “Body Weight, Day 15” value is 25 g (2×) and 21 g and 24 g. In addition, in series [6] (individual mice, 2 mg/kg), the “Body Weight, Day 18” value is 24 g and 27 g and 22 g and 26 g and 21 g; the “Body Weight, Day 22” value was 27 g (2×) and 21 g and Died; the “Tumor Weight, Day 11” value is 0 mg (2×) and 64 mg and 68 mg and 41 mg; the “Tumor Weight, Day 15” value was 36 mg and 136 mg and 0 mg and 213 mg and 207 mg. Moreover, in series [6] (individual mice, 2 mg/kg), the “Tumor Weight, Day 18” value was 256 mg and 849 mg and 0 mg and 525 mg and 327 mg; the “Tumor Weight, Day 22” value was 437 mg and 1248 mg and 0 mg and 663 mg and Died; the “Survival Time, Days of Post-treatment” value was 45^a day (2×) and 28 day and 30 day and 22 day.
